{
  "source": "patent US12415776B2",
  "about": "“Lipid nanoparticle compositions for delivering circular polynucleotides” (Orna Therapeutics, Inc., priority 2021, dated 2025)",
  "key": {"[1]": {"tested_on": "splenic immune cells (T cells, myeloid cells, B cells, NK cells)", "test": "mOX40L expression in splenic immune cells after IV LNP-circular RNA (flow cytometry)", "assay_type": "in vivo, C57BL/6 mice", "conditions": "1 mg/kg intravenously, 24 hours, IL:P 5.7, 50:10:38.5:1.5", "experimental": "The ionizable lipid:helper lipid:cholesterol:PEG-lipid molar ratio of these LNPs was 50:10:38.5:1.5. Dialysis of the LNPs were performed using PBS. C57BL/6 female mice (6-8 weeks, n=4) were dosed at either LNP comprising Lipid 1 of Table […] or the Lipid 15 of Table 10f at 1 mg/kg intravenously."}, "splenic T cells": {"tested_on": "splenic T cells", "test": "mOX40L expression in splenic T cells after IV LNP-circular RNA", "assay_type": "in vivo, C57BL/6 mice", "conditions": "1 mg/kg intravenously, 24 hours", "experimental": "The ionizable lipid:helper lipid:cholesterol:PEG-lipid molar ratio of these LNPs was 50:10:38.5:1.5. C57BL/6 female mice (6-8 weeks, n=4) were dosed at 1 mg/kg intravenously. At 24 hours, the spleen from the mice were collected for flow cytometry analysis, tested for weight loss and measured for serum alanine aminotransferase (ALT) after blood collection. mOX40L expression was measured in splenic T cells."}},
  "data": [
    {"smiles": "CCCCCCCCCCCCC(O)CN(CCCO)CCCCCCCC(=O)OC(CCCCCCCC)CCCCCCCC", "note": "(centres unmarked) [Lipid 1 of Table 10e]", "values": [
      {"measurement": "mOX40L transfection in splenic immune cells", "setting": "[1]", "result": "comparable or higher levels of mOX40L transfection"},
      {"measurement": "mOX40L expression in splenic T cells", "setting": "splenic T cells", "result": "resulted in expression of mOX40L in splenic T cells"}
    ]}
  ]
}
